Data: ChEMBL document CHEMBL6115034, “Pseudonatural Flavonols as Novel Copper Ionophores for NAFLD Intervention via Synergistic Copper Delivery and Flavonoid Activity” (J Med Chem, 2025)
Activity calls are given as the source filed them. The rule behind the calls is not given here.

Assays:
HepG2 [1] = experiment: Anti-NAFLD activity in palmitic acid human HepG2 NAFLD cell model assessed as upregulation of CYP4F12 expression at 0.5 uM incubated for 24 hrs in presence of CuCl2 by mRNA sequencing analysis; type: functional, cell-based
Hepatocyte [2] = experiment: Cytotoxicity against mouse Hepatocyte assessed as cell viability at 0.1 to 5 uM compound administrated as copper complex measured at 24 hrs by MTT assay; type: toxicity, cell-based; conditions: hepatocytes, dose 0.1-5 µM
[3] = Toxicity in male C57BL/6 mouse assessed as lung lesion at 125 mg/kg, po compound administrated as copper complex measured for 10 weeks; type: organism-based; conditions: in vivo, 1680 h
Mus musculus [4] = experiment: Anti-NAFLD activity in high-fat diet-induced male C57BL/6J mouse model assessed as increase in copper level in serum at 125 mg/kg, po compound administrated as copper complex measured for 10 weeks by ICP-MS analysis; type: functional, organism-based
Mus musculus [5] = experiment: Anti-NAFLD activity in high-fat diet-induced male C57BL/6J mouse model assessed as increase in E4P level in liver at 125 mg/kg, po compound administrated as copper complex measured for 10 weeks by LC-MS/MS analysis; type: functional, organism-based
[6] = Stability of the compound in cell culture medium containing 10% fetal bovine serum in presence of histidine by UV-Vis spectrophotometer analysis; type: physicochemical, cell-free; conditions: cattle
Mus musculus [7] = experiment: Anti-NAFLD activity in high-fat diet-induced male C57BL/6J mouse model assessed as increase in liver weight at 125 mg/kg, po compound administrated as copper complex measured for 10 weeks […]; type: functional, organism-based
Mus musculus [8] = experiment: Anti-NAFLD activity in high-fat diet-induced male C57BL/6J mouse model assessed as increase in X5P level in liver at 125 mg/kg, po compound administrated as copper complex measured for 10 weeks by LC-MS/MS analysis; type: functional, organism-based
HepG2 [9] = experiment: Anti-NAFLD activity in palmitic acid human HepG2 NAFLD cell model assessed as upregulation of CYP4F11 expression at 0.5 uM incubated for 24 hrs in presence of CuCl2 by mRNA sequencing analysis; type: functional, cell-based
[10] = Stability of the compound in cell culture medium containing 10% fetal bovine serum in presence of cysteine by UV-Vis spectrophotometer analysis; type: physicochemical, cell-free; conditions: cattle
HepG2 [11] = experiment: Anti-NAFLD activity in palmitic acid human HepG2 NAFLD cell model assessed as upregulation of MT1X expression at 0.5 uM incubated for 24 hrs in presence of CuCl2 by mRNA sequencing analysis; type: functional, cell-based
HepG2 [12] = experiment: Anti-NAFLD activity in palmitic acid human HepG2 NAFLD cell model assessed as downregulation of IL6 expression at 0.5 uM incubated for 24 hrs in presence of CuCl2 by mRNA sequencing analysis; type: functional, cell-based
[13] = Toxicity in male C57BL/6 mouse assessed as heart lesion at 125 mg/kg, po compound administrated as copper complex measured for 10 weeks; type: organism-based; conditions: in vivo, 1680 h
Hepatocyte [14] = experiment: Cytotoxicity against mouse Hepatocyte assessed as cell viability at 0.1 to 5 uM measured at 24 hrs by MTT assay; type: toxicity, cell-based; conditions: hepatocytes, dose 0.1-5 µM
[15] = Toxicity in male C57BL/6 mouse assessed as spleen lesion at 125 mg/kg, po compound administrated as copper complex measured for 10 weeks; type: organism-based; conditions: in vivo, 1680 h
HepG2 [16] = experiment: Anti-NAFLD activity in palmitic acid human HepG2 NAFLD cell model assessed as increase in ROS level at 5 uM compound administrated as copper complex measured at 24 hrs by DCFH-DA probe based flow cytometry analysis; type: functional
[17] = Stability of compound in PBS buffer in presence of cysteine by UV-Vis spectrophotometer analysis; type: physicochemical
[18] = Induction of copper transporting activity in human HeLa cells assessed as fold increase in intracellular copper levels at 2 uM incubated for 4 hrs by ICP-MS analysis; type: functional
HepG2 [19] = experiment: Anti-NAFLD activity in palmitic acid human HepG2 NAFLD cell model assessed as upregulation of PRDX1 expression at 0.5 uM incubated for 24 hrs in presence of CuCl2 by mRNA sequencing analysis; type: functional, cell-based
HepG2 [20] = experiment: Anti-NAFLD activity in palmitic acid human HepG2 NAFLD cell model assessed as increase in lipid droplet level at 5 uM compound administrated as copper complex measured at 24 hrs by Oil Red O staining based assay relative to control; type: functional
Mus musculus [21] = experiment: Anti-NAFLD activity in high-fat diet-induced male C57BL/6J mouse model assessed as increase in F6P level in liver at 125 mg/kg, po compound administrated as copper complex measured for 10 weeks by LC-MS/MS analysis; type: functional, organism-based
HepG2 [22] = experiment: Anti-NAFLD activity in palmitic acid human HepG2 NAFLD cell model assessed as upregulation of POR expression at 0.5 uM incubated for 24 hrs in presence of CuCl2 by mRNA sequencing analysis; type: functional, cell-based
HepG2 [23] = experiment: Anti-NAFLD activity in palmitic acid human HepG2 NAFLD cell model assessed as upregulation of fatty acid metabolism related genes at 0.5 uM incubated for 24 hrs in presence of CuCl2 by mRNA sequencing analysis; type: functional, cell-based
HepG2 [24] = experiment: Anti-NAFLD activity in palmitic acid human HepG2 NAFLD cell model assessed as effect on IFIT3 expression at 0.5 uM incubated for 24 hrs in presence of CuCl2 by mRNA sequencing analysis; type: functional, cell-based
[25] = Toxicity in male C57BL/6 mouse assessed as change in ALT level at 125 mg/kg, po compound administrated as copper complex measured for 10 weeks; type: organism-based; conditions: in vivo, 1680 h
Mus musculus [26] = experiment: Anti-NAFLD activity in high-fat diet-induced male C57BL/6J mouse model assessed as increase in Ru5P level in liver at 125 mg/kg, po compound administrated as copper complex measured for 10 weeks by LC-MS/MS analysis; type: functional, organism-based
[27] = Toxicity in male C57BL/6 mouse assessed as change in body weight at 125 mg/kg, po compound administrated as copper complex measured for 10 weeks; type: organism-based; conditions: in vivo, 1680 h
Mus musculus [28] = experiment: Anti-NAFLD activity in high-fat diet-induced male C57BL/6J mouse model assessed as increase in lipid droplets accumulation in liver at 125 mg/kg, po compound administrated as copper complex measured for 10 weeks by H and E staining based analysis; type: functional, organism-based
Mus musculus [29] = experiment: Anti-NAFLD activity in high-fat diet-induced male C57BL/6J mouse model assessed as reduction in IL-6 level in liver at 125 mg/kg, po compound administrated as copper complex measured for 10 weeks; type: functional, organism-based
HepG2 [30] = experiment: Anti-NAFLD activity in palmitic acid human HepG2 NAFLD cell model assessed as downregulation of STAT2 expression at 0.5 uM incubated for 24 hrs in presence of CuCl2 by mRNA sequencing analysis; type: functional, cell-based
HepG2 [31] = experiment: Anti-NAFLD activity in palmitic acid human HepG2 NAFLD cell model assessed as upregulation of CAT expression at 0.5 uM incubated for 24 hrs in presence of CuCl2 by mRNA sequencing analysis; type: functional, cell-based
Mus musculus [32] = experiment: Anti-NAFLD activity in high-fat diet-induced male C57BL/6J mouse model assessed as increase in R5P level in liver at 125 mg/kg, po compound administrated as copper complex measured for 10 weeks by LC-MS/MS analysis; type: functional, organism-based

Stability [6]: Stable
Stability [10]: Stable
Stability [17]: Stable
Structure (SMILES): O=c1c(O)c(-c2ccc3cccc(O)c3n2)oc2ccccc12
Activity (HepG2 [1]): Active
Activity (Hepatocyte [2]): Non-toxic
Activity [3]: Non-toxic
Activity (Mus musculus [4]): Active
Activity (Mus musculus [5]): Active
Activity (Mus musculus [7]): Active
Activity (Mus musculus [8]): Active
Activity (HepG2 [9]): Active
Activity (HepG2 [11]): Active
Activity (HepG2 [12]): Active
Activity [13]: Non-toxic
Activity (Hepatocyte [14]): Non-toxic
Activity [15]: Non-toxic
Activity (HepG2 [16]): Active
fold change (FC) [18]: ~5
Activity (HepG2 [19]): Active
Activity (HepG2 [20]): 31%
Activity (Mus musculus [21]): Active
Activity (HepG2 [22]): Active
Activity (HepG2 [23]): Active
Activity (HepG2 [24]): Active
Activity [25]: Non-toxic
Activity (Mus musculus [26]): Active
Activity [27]: Non-toxic
Activity (Mus musculus [28]): Active
Activity (Mus musculus [29]): Active
Activity (HepG2 [30]): Active
Activity (HepG2 [31]): Active
Activity (Mus musculus [32]): Active
